Results: patent US10800811B2, “Pharmacologically active peptide compound, process for the preparation and use thereof” (Dipartimento di Scienze Biomediche e Biotecnologiche, priority 2016, dated 2020)
Where a name gives a salt, the structure may show the parent alone. No end group written: not given here.

Experiments:
ALS patients = details: background statement, cited from earlier work
ALS model mice = details: background statement; cited from earlier work
NSC34-SOD1-G93A cell = format: cell-based, mice
Experimental: The action of the said NHK1 peptide upon the complex VDAC1/SOD1-G93A, i.e. the complex formed by the interaction between protein VDAC1 and the mutant enzyme SOD1 (exactly the mutant G93A, where the glycine 93 was replaced by alanine) was evaluated by in vitro and in cellulo experiments, i.e. in the NSC34 cell line. NSC34 is a hybrid cell line obtained by fusing mice motor neurons with neuroblastoma cells. The NSC34 cell line is widely recognized as cell model of motor neurons and, following its transfection with mutated SOD1, it is considered a reference model of ALS [Cashman N R et al. Neuroblastoma×spinal cord (NSC) hybrid cell lines resemble developing motor neurons. Dev. Dyn. […]
The MTT assay is a colorimetric assay aimed to quantify the activity of dehydrogenase enzymes reducing 3-(4,5-dimethyltiazol-2-yl)-2,5-diphenyltetrazolium, yellow, to purple-blue formazan [Mosmann T., Rapid colorimetric assay for cellular growth and survival: application to proliferation and cytotoxicity assays. […]
Cells were seeded on 24-wells plates at a density of 80,000 cells/well, incubated for 24 hours and then transiently transfected with plasmid pEGFP-N1 expressing SOD1WT or SOD1-G93A or a mock. […] The MTT assay was read after 24 hours incubation. […]
The same vitality assay was repeated in the presence of the NHK1 peptide. […] The MTT assay was read after 24 hours incubation. […]

Molecule	Efficacy in ALS (ALS patients)	further results
CCCN[C@@H]1CCc2nc(N)sc2C1 [Dexpramipexole]	lacks any efficacy in ALS patients	
O=S(=O)(c1cccc2cnccc12)N1CCCNCC1 [Fasudil hydrochloride]	inefficacy in ALS	
CCCCCCCCc1ccc(CCC(N)(CO)CO)cc1 [Fingolimid]	does not show any activity in ALS	
O=C([O-])[O-].[Li+].[Li+] [Lithium carbonate]	no influence on disease progression and survival	
Cc1ccc(NC(=O)c2ccc(CN3CCN(C)CC3)cc2)cc1Nc1nc(-c2cccnc2)cs1 [Masitinib]	inefficacy in ALS	
Nc1nc2ccc(OC(F)(F)F)cc2s1 [Riluzole]		Extension of life expectation (ALS patients; ALS, statistical analysis): about three months
C#Cc1cnc2nc(O)n(C(CC)CC)c2n1 [Tirasemvit]		Improvement of skeletal muscle strength (ALS model mice): did not confirm such ability
IAAQLLAYYFT [NHK1, Isoleucine-Alanine-Alanine-Glutamine-Leucine-Leucine-Alanine-Tyrosine-Tyrosine-Phenylalanine-Threonine]		Toxicity for the cell (NSC34-SOD1-G93A cell): not toxic at all
